Source: patent US7718681B2, “5-(1,3-Diaryl-1H-pyrazol-4-ylmethylene)-thiazolidine,2,4-dione derivatives useful as anticancer agent” (Korea Research Institute of Chemical Technology, priority 2005, dated 2010)

biological target: T1, CDC25B (Homo sapiens, UniProt P30305); assay: CDC25B enzyme assay; type: biochemical; conditions: catalytic domain of CDC25B (aa 378-566) GST fusion, 20 μm FDP, 1 hour at room temperature, fluorescence
T1 construct: Catalytic domain of CDC25B (aa 378-566) was expressed and produced in E. coli into a GST fusion protein; GST; made in house; host or cells: E. coli
T1 sequence (P30305 378-566 isoform P30305-2): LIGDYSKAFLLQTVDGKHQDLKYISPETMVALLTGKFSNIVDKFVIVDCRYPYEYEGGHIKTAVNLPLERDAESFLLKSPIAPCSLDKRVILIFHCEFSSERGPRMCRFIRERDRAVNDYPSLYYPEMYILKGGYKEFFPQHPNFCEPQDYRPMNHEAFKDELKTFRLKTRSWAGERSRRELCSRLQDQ
Protocol: Catalytic domain of CDC25B (aa 378-566) was expressed and produced in E. coli into a GST fusion protein, which was used as zymogen. Enzyme assay was carried out on a 96-well plate, with the final reaction volume per well adjusted to 200 μL. 170 μL of a buffer solution (30 mM Tris buffer, pH 8.5, 75 mM NaCl, 0.67 mM EDTA, 1 mM DTT), 20 μL (0.2 μg) of CDC25B enzyme and 10 μL of the test compound dissolved in DMSO were added, so that the final concentration became 1 μg/mL CDC25B and 20 μm FDP. Measurement was made after culturing at room temperature for 1 hour. FDP and DTT were added to the buffer solution just before assay, so that a fresh status could be maintained. After 1 hour of culturing, fluorescence resultant from the enzymatic reaction was measured at 485 nm (excitation) and 538 nm (emission).
The screened compound was treated to a final concentration of 1, 2, 5 and 10 μm to obtain the % inhibition value. If the inhibitory effect was low (less than 50% at […]), the concentration of the compound was increased to 20 μm and the % inhibition value and the IC50 value were obtained.

| SMILES | IC50 [nM] |
| --- | --- |
| CCN1C(=O)SC(=Cc2cn(-c3ccccc3)nc2-c2ccccc2Cl)C1=O [Compound 2] | 11400 |
| O=C1NC(=O)C(=Cc2cn(-c3ccccc3)nc2-c2cccc(Br)c2)S1 [Compound 3] | 9450 |
| CCN1C(=O)S/C(=C\c2cn(-c3ccccc3)nc2-c2ccccc2Br)C1=O [Compound 5] | 8960 |
| CN1C(=O)S/C(=C\c2cn(-c3ccccc3)nc2-c2cccc([N+](=O)[O-])c2)C1=O [Compound 15, 5-[3-(3-nitro)-1-phenyl-1H-pyrazol-4-ylmethylene]-3-methyl-thiazolidine-2,4-dione] | 8280 |
| CC(C)Oc1cc(OC(C)C)cc(-c2nn(-c3ccccc3)cc2/C=C2\SC(=O)NC2=O)c1 [Compound 30] | 5740 |
| O=C1NC(=O)/C(=C/c2cn(-c3ccccc3)nc2-c2ccc(OC(F)F)c(OCC3CC3)c2)S1 [Compound 52] | 2830 |
| O=C1NC(=O)C(=Cc2cn(-c3ccccc3)nc2-c2cc(F)cc(F)c2)S1 [Compound 58, 5-[3-(3,5-difluoro-phenyl)-1-phenyl-1H-pyrazol-4-ylmethylene]-thiazolidine-2,4-dione] | 5790 |
| COc1c(Cl)cccc1-c1nn(-c2ccccc2)cc1/C=C1\SC(=O)NC1=O [Compound 66] | 10600 |
| CCOc1c(Cl)cccc1-c1nn(-c2ccccc2)cc1/C=C1\SC(=O)NC1=O [Compound 67] | 3410 |
| CCOc1c(Cl)cccc1-c1nn(-c2ccccc2)cc1/C=C1\SC(=O)N(CC)C1=O [Compound 69] | 7200 |
| CCCOc1c(Cl)cccc1-c1nn(-c2ccccc2)cc1/C=C1\SC(=O)NC1=O [Compound 70] | 4050 |
| CCOc1ccc(-c2nn(-c3ccccc3)cc2C=C2SC(=O)NC2=O)cc1Br [Compound 77, 5-[3-(3-bromo-4-ethoxy-phenyl)-1-phenyl-1H-pyrazol-4-ylmethylene]-thiazolidine-2,4-dione] | 5650 |
| CCCOc1ccc(-c2nn(-c3ccccc3)cc2/C=C2\SC(=O)NC2=O)cc1Br [Compound 82] | 2810 |
| C#CCOc1ccc(-c2nn(-c3ccccc3)cc2/C=C2\SC(=O)NC2=O)cc1Br [Compound 100] | 2980 |
| COc1ccc(-c2nn(-c3ccccc3)cc2/C=C2\SC(=O)NC2=O)cc1I [Compound 111] | 3250 |
| CCCN1C(=O)S/C(=C\c2cn(-c3ccccc3)nc2-c2ccc(OCC)c(I)c2)C1=O [Compound 118] | 9250 |
| CCOc1ccc(-c2nn(-c3ccccc3)cc2C=C2SC(=O)NC2=O)cc1I [Compound 121] | 2600 |
| C=CCOc1ccc(-c2nn(-c3ccccc3)cc2/C=C2\SC(=O)N(CC=C)C2=O)cc1I [Compound 132] | 3600 |
| C#CCN1C(=O)S/C(=C\c2cn(-c3ccccc3)nc2-c2ccc(OCC=C)c(I)c2)C1=O [Compound 133] | 4990 |
| C#CCN1C(=O)S/C(=C\c2cn(-c3ccccc3)nc2-c2cc(Br)c(OCC=C)c(Br)c2)C1=O [Compound 169] | 7140 |
| CCN1C(=O)S/C(=C\c2cn(-c3ccccc3)nc2-c2cc(Br)c(OCC3CC3)c(Br)c2)C1=O [Compound 173] | 2350 |
| C=CCN1C(=O)S/C(=C\c2cn(-c3ccccc3)nc2-c2cc(Br)c(OC(F)F)c(Br)c2)C1=O [Compound 182] | 13600 |
| COc1c(C(C)C)cc(-c2nn(-c3ccccc3)cc2/C=C2\SC(=O)NC2=O)cc1C(C)C [Compound 184] | 3660 |
| CC(C)(C)c1cc(-c2nn(-c3ccccc3)cc2/C=C2\SC(=O)NC2=O)cc(C(C)(C)C)c1O [Compound 192] | 3990 |

The next lines start with the values.

| IC50 [nM] | SMILES |
| --- | --- |
| 230 | O=C1NC(=O)/C(=C/c2cn(-c3ccccc3)nc2-c2cccc(C(F)(F)F)c2)S1 [Compound 16, 5-[3-(3-trifluoromethyl)-1-phenyl-1H-pyrazol-4-ylmethylene]-thiazolidine-2,4-dione] |
| 1860 | CCCOc1cc(OCCC)cc(-c2nn(-c3ccccc3)cc2/C=C2\SC(=O)NC2=O)c1 [Compound 25] |
| 1520 | O=C1NC(=O)/C(=C/c2cn(-c3ccccc3)nc2-c2cc(OCC3CC3)cc(OCC3CC3)c2)S1 [Compound 35] |
| 540 | O=C1NC(=O)/C(=C/c2cn(-c3ccccc3)nc2-c2cc(OC3CCCC3)cc(OC3CCCC3)c2)S1 [Compound 41] |
| 230 | O=C1NC(=O)/C(=C/c2cn(-c3ccccc3)nc2-c2cc(OCc3ccccc3)cc(OCc3ccccc3)c2)S1 [Compound 62] |
| 210 | O=C1NC(=O)/C(=C/c2cn(-c3ccc([N+](=O)[O-])cc3)nc2-c2cc(OCc3ccccc3)cc(OCc3ccccc3)c2)S1 [Compound 65] |
| 2020 | CCCOc1ccc(-c2nn(-c3ccccc3)cc2/C=C2\SC(=O)N(CCC)C2=O)cc1Br [Compound 85] |
| 2210 | C=CCOc1ccc(-c2nn(-c3ccccc3)cc2/C=C2\SC(=O)NC2=O)cc1Br [Compound 88] |
| 1630 | O=C1NC(=O)/C(=C/c2cn(-c3ccccc3)nc2-c2ccc(OCC3CC3)c(Br)c2)S1 [Compound 94] |
| 570 | CCOc1ccc(-c2nn(-c3ccccc3)cc2C=C2SC(=O)NC2=O)cc1I [Compound 115] |
| 590 | CCOc1ccc(-c2nn(-c3ccccc3)cc2/C=C2\SC(=O)N(CC)C2=O)cc1I [Compound 117] |
| 360 | CCCOc1ccc(-c2nn(-c3ccccc3)cc2/C=C2\SC(=O)NC2=O)cc1I [Compound 122] |
| 2060 | COc1ccc(-c2nn(-c3ccccc3)cc2/C=C2\SC(=O)NC2=O)cc1C(C)C [Compound 136] |
| 2240 | CCCOc1ccc(-c2nn(-c3ccccc3)cc2/C=C2\SC(=O)NC2=O)cc1C(C)C [Compound 141] |
| 1480 | CCCOc1ccc(-c2nn(-c3ccccc3)cc2/C=C2\SC(=O)NC2=O)cc1C(C)(C)C [Compound 142] |
| 1840 | COc1c(Br)cc(-c2nn(-c3ccccc3)cc2/C=C2\SC(=O)NC2=O)cc1Br [Compound 145] |
| 1400 | CCOc1c(Br)cc(-c2nn(-c3ccccc3)cc2/C=C2\SC(=O)NC2=O)cc1Br [Compound 151] |
| 1360 | CCOc1c(Br)cc(-c2nn(-c3ccccc3)cc2/C=C2\SC(=O)N(CC)C2=O)cc1Br [Compound 153] |
| 1500 | CCCOc1c(Br)cc(-c2nn(-c3ccccc3)cc2/C=C2\SC(=O)NC2=O)cc1Br [Compound 163] |
| 170 | C=CCOc1c(Br)cc(-c2nn(-c3ccccc3)cc2/C=C2\SC(=O)NC2=O)cc1Br [Compound 164] |
| 710 | O=C1NC(=O)/C(=C/c2cn(-c3ccccc3)nc2-c2cc(Br)c(OC(F)F)c(Br)c2)S1 [Compound 178] |
| 1090 | CCCOc1c(C(C)C)cc(-c2nn(-c3ccccc3)cc2/C=C2\SC(=O)NC2=O)cc1C(C)C [Compound 190] |

test system: C33A human uterine cancer cell line; assay: not given; conditions: mouse, in vivo

| SMILES | negative responses (reduced motion, lack of appetite) |
| --- | --- |
| N.N.[Cl][Pt][Cl] [cisplatin, reference compound] | reduced motion or lack of appetite |
